Experimental data from US8921414B2, “Spiroketals” (EcoBiotics Ltd, priority 2005, dated 2014).
Values after ≈ are worked out from the molar mass of the structure shown.

Legend:
MCF-7 breast cancer = assay: Cell growth inhibition (Table 22), MCF7; assay type: cell-based; conditions: Homo sapiens, read-out: IC50 (drug dose which inhibits cell growth by 50%) MCF7
Procedure: (§1) The isolated compounds were tested against a number of human and non-human cancer cell lines. The human tumor cell lines were: MCF-7, MDA-MB-231 and T47D, breast cancer; DU145 and PC3, prostate cancer; CI80-13S, ovarian cancer; MM96L, D04, SkMel5, MM418c5 melanoma; HT29, colon cancer; K562 and HL60, leukemia. Mouse cell lines were the B16 mouse melanoma and LK2 UV-induced squamous cell carcinoma (SCC). Neonatal foreskin fibroblasts (NFF) were used as normal control cells. Cells were cultured at 37° C. in 5% carbon dioxide/air, in RPMI 1640 medium containing 10% fetal calf serum.

Drosophila melanogaster = assay: DipteraTOX insecticidal bioassay; set-up: key: A value of A in DipG, Dip P or Dip H represents very active; a value of P represents active; conditions: 250 μg per mL in agar
Procedure: DipteraTOX. DipteraTOX is referred to herein as DipG, DipP and DipH. DipG represents no grazing of larva. DipP represents no pupae formation and Dip H represents no hatching of flies. A value of A in DipG, Dip P or Dip H represents very active and a value of P represents active. In DipteraTox the fly eggs are applied to the surface of an agar matrix containing 250 μg per mL of the test chemical and allowed to hatch, develop and pupate for a period up of two weeks. The assay was monitored at two discrete times to determine the extent of grazing of the agar matrix at Week 1 and the presence of adult flies at Week 2. […] Drosophila melanogaster was utilised for this assay.

MM96L melanoma = assay: Cell growth inhibition (Table 22), MM96L; assay type: cell-based; conditions: Homo sapiens, read-out: IC50 (drug dose which inhibits cell growth by 50%) MM96L
Procedure: as §1

a human tumor cell line = assay: Preliminary screen of growth-inhibiting activity of derivatised EBI-23, EBI-24, EBI-25; assay type: cell-based; conditions: growth inhibition
Procedure: A series of derivatisation reactions were conducted on 1 mg amounts of EBI-23, EBI-24, and EBI-25. Mass spectra were run to confirm the nature of the derivatives but the product(s) weren't purified for this preliminary screen of growth-inhibiting activity in a human tumor cell line. The results were compared on the assumption that no losses occurred during derivatisation.

leukemia K562 = assay: Additional in vitro activity: antitumor activity, K562; assay type: cell-based, human; conditions: concentration with activity
Giardia spp. = assay: TriTOX (Gi) anti-protozoan bioassay; assay type: cell-based; conditions: for Gi LD99: weight of chemical in last well with activity, real value may be lower
Source text: TriTOX (alternatively referred to herein as Gi) is a microtitre plate based chromogenic bioassay for the screening of anti-protozoan activity of pathogenic, anaerobic/microaerophilic protozoans for example Giardia spp. and Trichomonas spp. The bioassays are run under anaerobic conditions and features species specific chromogens. […] Aliquots of each concentration(s) are applied to the wells of 96-well microtitre plates and diluted with media. […] The lowest concentration at which the compound is active is noted as the minimum inhibitory concentration (MIC). Additionally, microscopic inspection is carried out to identify any patterns of morphological change that may be consistent with a type of toxicity and therefore mode of action. Giardia spp. was utilized for this assay.

breast MCF-7 = assay: Additional in vitro activity: antitumor activity, MCF-7; assay type: cell-based, human; conditions: concentration with activity
DU145 prostate cancer = assay: Cell growth inhibition (Table 22), DU145; assay type: cell-based; conditions: Homo sapiens, DU-145; read-out: IC50 (drug dose which inhibits cell growth by 50%) DU145
Procedure: as §1

B16 mouse melanoma = assay: Cell growth inhibition (Table 22), B16; assay type: cell-based; conditions: read-out: IC50 (drug dose which inhibits cell growth by 50%) B16
Procedure: as §1

B16 melanoma = assay: Inhibition of B16 melanoma growth in C57BL/6 mice; assay type: in vivo
Procedure: After a preliminary experiment to determine the MTD in mice, C57BL/6 mice were implanted with B16 melanoma cells (0.5 million cells per site, 2 sites per mouse sc, 3 mice/group) and treatment commenced 24 hours later. For this initial study, EBI-23 was prepared by diluting an ethanol solution into saline, such that the final ethanol level was 2%. The cloudy solution thus obtained was injected intraperitoneally into mice every day for 7 days. Tumor size and body weight were measured over time.

Trichophyton rubrum = assay: MycoTOX (Tr) antifungal bioassay; assay type: cell-based
Procedure: MycoTOX (alternatively referred to herein as Tr) is a non-chromogenic bioassay used to detect activity against filamentous fungal pathogens of plants and animals. The bioassay features a solid phase agar base into which the test compound has been incorporated. As the growth patterns of filamentous fungi are readily apparent on the agar surface the extent of mycelial growth, sporulation (if relevant to the species under investigation) and colour changes with maturation are measured.
MycoTOX, involves a fungus (spore suspension or mycelial fragments) applied to the surface of an agar matrix containing the test chemical and allowed to grow for a period of up to a week (depending on species). The assay was monitored at two discrete times to identify key development phases in the life cycle (for example mycelial growth and extent of sporulation) and the active wells noted. The monitoring times were dependent on the fungal species under investigation.
The MycoTOX assays were carried out using Trichophyton rubrum.

[1] = test system: control LCL (lymphoblastoid cells); assay: Direct toxicity on control LCL; assay type: cell-based, human; conditions: same drug concentrations as MLR (1 μg/mL)
Procedure: (§2) Gamma-irradiated lymphoblastoid cells (LCL, Esptein-Barr virus-transformed B-cells; 17,000) were added to human peripheral blood lymphocytes (PBMC; 50,000 per microtitre well), then the drug, incubated at 37 C as above and labeled with [3H]-thymidine on Day 4. Cells were lysed and washed onto glass fibre mats for scintillation counting. The same drug concentrations were tested for direct toxicity by assay on control LCL (10,000 cells/well).

PC3 prostate cancer = assay: Cell growth inhibition (Table 22), PC3; assay type: cell-based; conditions: Homo sapiens, PC-3; read-out: IC50 (drug dose which inhibits cell growth by 50%) PC3
Procedure: as §1

several cell lines = assay: Morphological and cell cycle effects (flow cytometry); assay type: cell-based; conditions: 24 hour treatment, 1 μg/mL
Source text: This tends to rule out targets such as PKC (prototype compound PMA), DNA damage (prototype cisplatin), kinases (prototype staurosporine), mitochondria or the plasma membrane (cell lysis).
This was not accompanied, however, by the typical rounded morphology of cells treated with tubulin ligands.

[2] = test system: human peripheral blood lymphocytes (PBMC) with gamma-irradiated LCL; assay: Inhibition of the mixed lymphocyte reaction (MLR); assay type: cell-based; conditions: [3H]-thymidine on Day 4
Procedure: as §2
The MLR measures the ability of normal human T-cells to undergo a proliferative response to allo antigens expressed by a non-proliferating B-cell line. […] This was not due to general toxicity because the growth of control LCLs was unaffected.

`CC/C=C/CCCCCCCCCCCC(O)CC1CC(O)CC2(CC3OC(=O)C=CC3O2)O1` (stereo not shown) [EBI-24] was tested, and the IC50 (MCF-7 breast cancer) was 0.2 µg/mL (≈ 0.418 µM), the “DipH (no hatching of flies)” value (Drosophila melanogaster) was “P/P” and the “DipP (no pupae formation)” value (Drosophila melanogaster) was “P/P”. For the same compound, the IC50 (MM96L melanoma) was 1.3 µg/mL (≈ 2.72 µM), the “fold less potent than EBI-23” value (a human tumor cell line) was 10 fold and the “antitumor activity against leukemia K562 at” value (leukemia K562) was 10 µg/mL. For the same compound, the “Gi LD99” value (Giardia spp.; listed as EB116.LA3.31-36/40) was 100 µg/mL, the “Gi LD99” value (Giardia spp.; listed as EB116.LA3.60-47/49) was 50 µg/mL and the “antitumor activity against breast MCF-7 at” value (breast MCF-7) was 10 µg/mL. It also gave an IC50 (DU145 prostate cancer) of 0.7 µg/mL (≈ 1.46 µM).
For `CCCCCCCCCCCCCC(O)CC1CC(O)CC2(CC3OC(=O)C=CC3O2)O1` (stereo not shown) [EBI-23], the IC50 (B16 mouse melanoma) was 0.5 µg/mL (≈ 1.1 µM), the IC50 (MCF-7 breast cancer) was 0.5 µg/mL (≈ 1.1 µM) and the “DipP (no pupae formation)” value (Drosophila melanogaster) was “P”. For the same compound, the IC50 (MM96L melanoma) was 0.15 µg/mL (≈ 0.331 µM), the B16 growth (B16 melanoma; 80 μg (per mouse per day) intraperitoneally) was “measurable response” and the B16 growth (B16 melanoma; 250 μg/mouse/day intraperitoneally) was “significant reduction”. The body weight (B16 melanoma; higher dose (250 μg/mouse/day)) was “some weight loss”, the tolerability of regime (B16 melanoma; intraperitoneal daily dosing, C57BL/6 mice) was “tolerated this regime well” and the “antitumor activity against leukemia K562 at” value (leukemia K562) was 3 µg/mL. For the same compound, the “Tr Titre” value (Trichophyton rubrum) was 0, the “Gi Titre” value (Giardia spp.) was 4 and the “Gi LD99” value (Giardia spp.; listed as EB77.LA4.92-100) was 16 µg/mL. The “Gi LD99” value (Giardia spp.; listed as EB116.LA3.31-27/32) was 50 µg/mL, the “Gi LD99” value (Giardia spp.; listed as EB116.LA3.60-40/42) was 50 µg/mL and the “growth of control LCLs” value [1] was “unaffected”. For the same compound, the IC50 (PC3 prostate cancer) was 1 µg/mL (≈ 2.21 µM), the “antitumor activity against breast MCF-7 at” value (breast MCF-7) was 1 µg/mL and the “DNA fragments (apoptosis)” value (several cell lines) was “No DNA fragments were detected”. The “cell cycle effect by flow cytometry” value (several cell lines) was “variable degree of G2/M arrest”, the IC50 (DU145 prostate cancer) was 0.7 µg/mL (≈ 1.55 µM) and the “concentration found to inhibit the MLR” value [2] was 1 µg/mL.
